Experimental data reported in the supplement of paper PMC10307832.

Assays:
Test in all cases: relative viability (nuclei count vs DMSO), 5 days (fraction); higher = more cells survive
Midostaurin + OSI-027 = compound: CO[C@@H]1[C@H](N(C)C(=O)c2ccccc2)C[C@H]2O[C@]1(C)n1c3ccccc3c3c4c(c5c6ccccc6n2c5c31)C(=O)NC4 [Midostaurin] + COc1cccc2cc(-c3nc([C@H]4CC[C@H](C(=O)O)CC4)n4ncnc(N)c34)[nH]c12 [OSI-027] (partner 0.5 µM)
How it was run: (§1)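 Each reported value is a median over duplicate plates. It expresses relative viability: treated-well nuclei count divided by vehicle-well nuclei count. Lung cancer cell lines in 1536-well plates were dosed by pin tool a day after seeding, alone with one drug or with a fixed anchor-drug dose plus five library-drug doses (not always all listed) in √10 steps, and nuclei were counted after 5 days.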

[1] = compound: COc1cc(-c2nn([C@H]3CC[C@H](N4CCN(C(C)=O)CC4)CC3)c3ncnc(N)c23)ccc1NC(=O)c1cc2ccccc2n1C + CC(=O)c1c(C)c2cnc(Nc3ccc(N4CCNCC4)cn3)nc2n(C2CCCC2)c1=O [Palbociclib] (partner 0.5 µM)
How it was run: as §1

[2] = compound: COc1cc(-c2nn([C@H]3CC[C@H](N4CCN(C(C)=O)CC4)CC3)c3ncnc(N)c23)ccc1NC(=O)c1cc2ccccc2n1C + NC(=O)Nc1cc(-c2cccc(F)c2)sc1C(=O)N[C@H]1CCCNC1 [AZD7762] (partner 0.2 µM)
How it was run: as §1

[3] = compound: COc1cc(-c2nn([C@H]3CC[C@H](N4CCN(C(C)=O)CC4)CC3)c3ncnc(N)c23)ccc1NC(=O)c1cc2ccccc2n1C + CC(C)C[C@H](NC(=O)[C@H](Cc1ccccc1)NC(=O)c1cnccn1)B(O)O [Bortezomib] (partner 0.002 µM)
How it was run: as §1

[4] = compound: COc1cc(-c2nn([C@H]3CC[C@H](N4CCN(C(C)=O)CC4)CC3)c3ncnc(N)c23)ccc1NC(=O)c1cc2ccccc2n1C + CS(=O)(=O)CCNCc1ccc(-c2ccc3ncnc(Nc4ccc(OCc5cccc(F)c5)c(Cl)c4)c3c2)o1 [Lapatinib] (partner 2 µM)
How it was run: as §1

Cell Line | relative viability (Midostaurin + OSI-027; first compound 0.01 µM) | relative viability (Midostaurin + OSI-027; first compound 0.03162 µM) | relative viability (Midostaurin + OSI-027; first compound 0.1 µM) | relative viability (Midostaurin + OSI-027; first compound 0.3162 µM) | relative viability ([1]; first compound 0.0128 µM) | relative viability ([1]; first compound 0.04048 µM) | relative viability ([1]; first compound 0.128 µM) | relative viability ([1]; first compound 1.28 µM) | relative viability ([2]; first compound 0.0128 µM) | relative viability ([2]; first compound 0.04048 µM) | relative viability ([2]; first compound 0.128 µM) | relative viability ([2]; first compound 1.28 µM) | relative viability ([3]; first compound 0.0128 µM) | relative viability ([3]; first compound 0.04048 µM) | relative viability ([3]; first compound 0.128 µM) | relative viability ([3]; first compound 1.28 µM) | relative viability ([4]; first compound 0.0128 µM) | relative viability ([4]; first compound 0.04048 µM) | relative viability ([4]; first compound 0.128 µM) | relative viability ([4]; first compound 1.28 µM)
NCI-H2342 | 0.667 | 0.619 | 0.658 | 0.74 | 0.503 | 0.487 | 0.517 | 0.514 | 0.464 | 0.422 | 0.477 | 0.361 |  |  |  |  |  |  |  | 
NCI-H2228 | 0.652 | 0.603 | 0.687 | 0.703 | 0.761 | 0.672 | 0.772 | 0.522 |  |  |  |  | 0.945 | 1.08 | 0.804 | 0.559 | 1.37 | 0.958 | 1.14 | 0.861
SK-MES-1 | 0.55 | 0.531 | 0.548 | 0.44 | 0.298 | 0.374 | 0.319 | 0.277 |  |  |  |  |  |  |  |  | 0.397 | 0.561 | 0.443 | 0.451
SW 1573 | 0.619 | 0.82 | 0.581 | 0.748 | 0.393 | 0.388 | 0.172 | 0.347 |  |  |  |  | 0.956 | 1.11 | 0.98 | 0.8 | 0.981 | 1 | 0.914 | 0.808
NCI-H661 | 0.74 | 0.638 | 0.719 | 0.607 | 0.421 | 0.436 | 0.42 | 0.419 |  |  |  |  | 0.879 | 0.823 | 0.709 | 0.384 | 0.545 | 0.532 | 0.469 | 0.319
NCI-H1623 | 0.455 | 0.471 | 0.465 | 0.561 |  |  |  |  |  |  |  |  |  |  |  |  |  |  |  | 
Calu-6 |  |  |  |  |  |  |  |  |  |  |  |  | 1.04 | 1.05 | 0.869 | 0.754 | 1.08 | 1.01 | 0.91 | 0.875
NCI-H1650 | 0.574 | 0.71 | 0.647 | 0.597 | 0.342 | 0.409 | 0.306 | 0.268 |  |  |  |  | 0.225 | 0.179 | 0.211 | 0.205 | 0.782 | 0.846 | 0.69 | 0.6
NCI-H2170 | 0.697 | 0.681 | 0.683 | 0.79 | 0.445 | 0.396 | 0.383 | 0.327 | 0.914 | 0.928 | 0.788 | 0.6 |  |  |  |  | 0.253 | 0.283 | 0.243 | 0.249
NCI-H1299 |  |  |  |  |  |  |  |  |  |  |  |  | 1.02 | 1.14 | 1.06 | 1.22 | 0.997 | 1.11 | 0.984 | 1.04
EBC-1 |  |  |  |  |  |  |  |  |  |  |  |  | 0.575 | 0.554 | 0.521 | 0.481 | 0.203 | 0.23 | 0.205 | 0.19
NCI-H1648 | 0.285 | 0.221 | 0.275 | 0.233 | 0.263 | 0.275 | 0.242 | 0.333 | 0.686 | 0.609 | 0.75 | 0.566 |  |  |  |  |  |  |  | 
